Assay results reported in patent publication US11230535B2, “CFTR regulators and methods of use thereof” (THE REGENTS OF THE UNIVERSITY OF CALIFORNIA, priority 2015, dated 2022).
“Also recorded” adds a separate entry of the source.

molecular target: human wild-type CFTR (Homo sapiens, UniProt P13569); assay: Cell-based plate reader (YFP iodide influx) assay of CFTR function; set-up: expressed in transfected cells; host or cells: Fischer rat thyroid (FRT) cells stably co-expressing YFP-H148Q; conditions: N,N-diethyl-N′-aryl-1,3,5-triazine diamine analogs; read-out: EC50 for CFTR activation
Sequence (P13569 whole entry): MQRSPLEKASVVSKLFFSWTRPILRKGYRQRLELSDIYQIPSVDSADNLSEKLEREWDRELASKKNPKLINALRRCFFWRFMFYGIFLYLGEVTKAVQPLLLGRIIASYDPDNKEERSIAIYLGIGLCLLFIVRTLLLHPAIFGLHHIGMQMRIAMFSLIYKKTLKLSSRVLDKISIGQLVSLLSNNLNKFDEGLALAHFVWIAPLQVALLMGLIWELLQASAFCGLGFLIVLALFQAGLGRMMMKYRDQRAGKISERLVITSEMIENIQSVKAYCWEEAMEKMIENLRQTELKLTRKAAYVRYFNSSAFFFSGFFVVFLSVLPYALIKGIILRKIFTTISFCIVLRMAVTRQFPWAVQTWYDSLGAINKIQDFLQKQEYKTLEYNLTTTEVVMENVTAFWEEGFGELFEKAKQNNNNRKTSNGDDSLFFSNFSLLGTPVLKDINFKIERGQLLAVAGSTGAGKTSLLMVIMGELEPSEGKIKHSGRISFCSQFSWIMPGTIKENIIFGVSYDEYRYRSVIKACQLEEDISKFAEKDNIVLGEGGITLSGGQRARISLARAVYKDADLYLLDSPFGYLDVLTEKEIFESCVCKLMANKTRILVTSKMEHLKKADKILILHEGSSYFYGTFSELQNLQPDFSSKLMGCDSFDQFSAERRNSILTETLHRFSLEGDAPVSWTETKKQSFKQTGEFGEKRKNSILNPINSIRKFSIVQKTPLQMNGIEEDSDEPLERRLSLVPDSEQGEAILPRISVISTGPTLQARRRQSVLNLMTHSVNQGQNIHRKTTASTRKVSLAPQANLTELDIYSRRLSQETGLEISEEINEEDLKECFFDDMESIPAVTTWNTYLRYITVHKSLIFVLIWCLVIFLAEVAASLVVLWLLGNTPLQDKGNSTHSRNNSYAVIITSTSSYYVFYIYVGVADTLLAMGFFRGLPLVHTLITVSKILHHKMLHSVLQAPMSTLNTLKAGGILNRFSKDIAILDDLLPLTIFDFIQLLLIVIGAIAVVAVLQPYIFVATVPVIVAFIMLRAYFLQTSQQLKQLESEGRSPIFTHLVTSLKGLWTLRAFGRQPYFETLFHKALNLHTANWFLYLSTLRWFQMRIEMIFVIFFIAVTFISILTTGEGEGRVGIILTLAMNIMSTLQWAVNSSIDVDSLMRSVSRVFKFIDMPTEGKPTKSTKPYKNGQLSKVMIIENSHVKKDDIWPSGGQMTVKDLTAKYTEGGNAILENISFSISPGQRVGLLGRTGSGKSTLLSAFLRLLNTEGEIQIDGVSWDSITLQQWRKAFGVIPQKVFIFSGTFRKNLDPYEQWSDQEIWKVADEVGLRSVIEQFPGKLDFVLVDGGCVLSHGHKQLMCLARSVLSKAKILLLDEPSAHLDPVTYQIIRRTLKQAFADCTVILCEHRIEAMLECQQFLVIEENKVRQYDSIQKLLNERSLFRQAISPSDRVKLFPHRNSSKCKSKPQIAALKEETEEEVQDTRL
Description: The initiate rate of I^− influx was computed by determined using exponential regression. All compound plates contained negative controls (DMSO vehicle) and positive controls (20 μM forskolin).
High-throughput screening. […] The initiate rate of I^− influx was computed by determined using exponential regression. All compound plates contained negative controls (DMSO vehicle) and positive controls ([…] forskolin).
Platereader assays of chloride channel function. CFTR activity was assayed as described. […] I^− influx was measured in a plate reader with initial baseline read for 2 s and then for 12 s after rapid addition of an I^−-containing solution. TMEM16A activity was assayed similarly as described using FRT cells co-expressing YFP and TMEM16A. Activity of non-TMEM16A CaCC was assayed as described in HT-29 cells expressing YFP. In each assay initial rates of I^− influx were computed as a linear measure of channel function.

Compound | EC50 [nM]
CCN(CC)c1nc(Nc2ccc(C(=O)O)cc2)nc(OC(C(F)(F)F)C(F)(F)F)n1 [6e, 4-({4-(Diethylamino)-6-[(1,1,1,3,3,3-hexafluoropropan-2-yl)oxy]-1,3,5-triazin-2-yl}amino)benzoic acid] | 900
CCN(CC)c1nc(Nc2ccc([N+](=O)[O-])cc2)nc(OC(C(F)(F)F)C(F)(F)F)n1 [6g, N,N-Diethyl-6-[(1,1,1,3,3,3-hexafluoropropan-2-yl)oxy]-N-(4-nitrophenyl)-1,3,5-triazine-2,4-diamine] | 18000
CCN(CC)c1nc(Nc2cccc(C(=O)O)c2)nc(OC(C(F)(F)F)C(F)(F)F)n1 [6a, 3-({4-(diethylamino)-6-[(1,1,1,3,3,3-hexafluoropropan-2-yl)oxy]-1,3,5-triazin-2-yl}amino)benzoic acid] | 160

same assay, conditions: bicyclic aniline analogs; read-out: EC50

Compound | EC50 [nM]
CCN(CC)c1nc(Nc2ccc3ncoc3c2)nc(OC(C(F)(F)F)C(F)(F)F)n1 [6j, N′-(1,3-Benzoxazol-6-yl)-N,N-diethyl-6-[(1,1,1,3,3,3-hexafluoropropan-2-yl)oxy]-1,3,5-triazine-2,4-diamine] | 150

same assay, conditions: commercial analogs; FRT cells with YFP and wildtype CFTR, 125 nM forskolin

Compound | % Activation [%]
Fc1ccc(Nc2nc(OC(C(F)(F)F)C(F)(F)F)nc(N3CCCCC3)n2)cc1 [K062] | 49
CCCCNc1nc(Nc2ccc(OC(F)(F)F)cc2)nc(OCC(F)(F)F)n1 [K030] | 16
CCCCNc1nc(Nc2ccc(OC(F)(F)Cl)cc2)nc(OCC(F)(F)F)n1 [K085] | 25
FC(F)(F)COc1nc(NCc2ccccc2)nc(Nc2ccc(OC(F)(F)F)cc2)n1 [K082] | 28
COc1nc(Nc2ccc(O)cc2)nc(OC(C(F)(F)F)C(F)(F)F)n1 [K031] | 61
CCOc1nc(NCCO)nc(Nc2ccc([N+](=O)[O-])cc2)n1 [K049] | 28
CN(C)c1nc(Nc2ccc(OC(F)(F)Cl)cc2)nc(OCC(F)(F)F)n1 [K075] | 32
OCCNc1nc(Nc2ccc(OC(F)(F)Cl)cc2)nc(OCC(F)(F)F)n1 [K078] | 28
COc1nc(NCCO)nc(Nc2ccc([N+](=O)[O-])cc2)n1 [K047] | 17
FC(F)(F)C(Oc1nc(Nc2ccc(Cl)cc2)nc(N2CCOCC2)n1)C(F)(F)F [K065] | 38
CNc1nc(Nc2ccc(C(C)=O)cc2)nc(OC(C(F)(F)F)C(F)(F)F)n1 [K001] | 32
CCCCCCNc1nc(Nc2ccc(I)cc2)nc(OC)n1 [K039] | 27
CCCCCCNc1nc(Nc2ccc(Cl)cc2)nc(OCC)n1 [K036] | 46
CCOc1nc(Nc2ccc(I)cc2)nc(NC2CCCCC2)n1 [K046] | 16
CN(C)c1nc(Nc2ccc(Cl)cc2)nc(OCCNC(=O)c2ccc(Cl)cc2)n1 [K087] | 47
COc1nc(Nc2ccc(I)cc2)nc(OC2CCCCC2)n1 [K042] | 15
CNc1nc(Nc2ccc(OC(F)(F)Cl)cc2)nc(OCC(F)(F)F)n1 [K024] | 64
C=CCNc1nc(Nc2ccc(OC(F)(F)Cl)cc2)nc(OCC(F)(F)F)n1 [K077] | 29
COc1nc(NCCN2CCOCC2)nc(Nc2ccccc2)n1 [K021] | 16
Cc1ccccc1Nc1nc(OCC(F)(F)F)nc(OCC(F)(F)F)n1 [K019] | 28
Cc1ccccc1Nc1nc(OC(C(F)(F)F)C(F)(F)F)nc(OC(C(F)(F)F)C(F)(F)F)n1 [K012] | 19
COc1nc(Nc2ccc([N+](=O)[O-])cc2)nc(OC)n1 [K023] | 41
COc1nc(Nc2ccccc2)nc(Nc2ccccc2)n1 [K008] | 32
FC(F)(F)C(Oc1nc(Nc2cccc3ccccc23)nc(OC(C(F)(F)F)C(F)(F)F)n1)C(F)(F)F [K004] | 16
FC(F)(F)COc1nc(Nc2ccc(OC(F)(F)Cl)cc2)nc(N2CCCCC2)n1 [K070] | 28

tested on: loperamide-treated mice; assay: Loperamide-induced mouse model of constipation (3-h stool weight, pellet number, water content); conditions: wildtype loperamide-treated mice

Compound | effect of inactive analog on stool parameters
Cn1c(=O)c(-c2cc([N+](=O)[O-])ccc2N)nc2ccccc21 [inactive chemical analog of CFTRact-J027, reference compound] | nor was an inactive chemical analog of CFTRact-J027 effective

tested on: rat liver microsomes; assay: In vitro metabolic stability in rat liver microsomes; assay type: in vitro ADME; conditions: 5 μM, rat hepatic microsomes, NADPH
Description: In vitro metabolic stability. Compounds (each 5 μM) were incubated for specified times at 37° C. with rat liver microsomes (1 mg/ml; Sigma-Aldrich) in potassium phosphate buffer containing 1 mM NADPH, as described^14.

Compound | original compound remaining at 60 min [%]
CCN(CC)c1nc(Nc2ccc3ncoc3c2)nc(OC(C(F)(F)F)C(F)(F)F)n1 [6j, N′-(1,3-Benzoxazol-6-yl)-N,N-diethyl-6-[(1,1,1,3,3,3-hexafluoropropan-2-yl)oxy]-1,3,5-triazine-2,4-diamine] | ~60

same assay, conditions: NADPH

Compound | metabolic stability in hepatic microsomes, in words
CCN(CC)c1nc(Nc2ccc3ncoc3c2)nc(OC(C(F)(F)F)C(F)(F)F)n1 [6j, N′-(1,3-Benzoxazol-6-yl)-N,N-diethyl-6-[(1,1,1,3,3,3-hexafluoropropan-2-yl)oxy]-1,3,5-triazine-2,4-diamine] | metabolized slowly; also recorded: substantially greater in vitro metabolic stability than 1 or 12

tested on: mice; assay: Tear secretion / tear volume in mice (phenol red thread); assay type: in vivo, mouse; conditions: mouse, in vivo
Description: (§1) To measure unstimulated tear production, phenol red threads (Zone-Quick, Oasis Medical, Glendora, Calif., USA) were placed for 10 s in the lateral canthi of isofluorane-anesthetized mice using jewelers' forceps. Tear volume was measured as the length of thread wetting, as visualized under a dissecting microscope. Serial measurements were used to evaluate compound pharmacodynamics after application of 2-μL drops of compound formulations (50-100 μM compound in PBS containing 0.5% polysorbate and 0.5% DMSO) comparing to vehicle.
as §1, with “Tear secretion. To” for “To”, “2-[…]L” for “2-μL”
Tear volume. Tear volume was measured using phenol red threads (Zone-Quick, Oasis Medical, Glendora, Calif.) as described. Threads were placed for 10 s in the lateral canthi of isofluorane-anesthetized mice using jewelers' forceps. Tear volume was determined from the length of thread wetting as visualized under a dissecting microscope. Serial measurements were done to evaluate compound pharmacodynamics after topical application of a single, 2.5-μL drop of ophthalmic formulation containing 0-100 μM of 1 or 12 in Ringer's solution with 0.3% carboxymethylcellulose (high viscosity, VWR, Radnor, Pa.), 0.015% benzalkonium chloride preservative, and 1% DMSO. Both eyes in each mouse received the same treatment to control for potential contralateral effects of a given treatment.

Compound | basal tear secretion at 30 min | effect on tear secretion after 2 hours
cholera toxin | substantially increased | undetectable

same assay, conditions: single topical dose, 30 min

Compound | basal tear secretion at 30 min
CC(C)Cn1c(=O)n(C)c(=O)c2[nH]cnc21 [IBMX, 3-isobutyl-1-methylxanthine, reference compound] | substantially increased

same assay, conditions: single topical dose, after 2 hours

Compound | effect on tear secretion after 2 hours
CC(C)Cn1c(=O)n(C)c(=O)c2[nH]cnc21 [IBMX, 3-isobutyl-1-methylxanthine, reference compound] | undetectable
